Where two headings read alike, the source gives them in different places.
Tests used:
SMN2 promoter = SMN2 promoter assay in NSC-34 cells (β-lactamase reporter); type: cell-based, mouse; conditions: read-out: Promoter Assay EC50
Summary of the method: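 Compounds were tested for SMN2 promoter activation in NSC-34 cells, a mouse spinal cord–neuroblastoma hybrid line. The cells carry a plasmid in which a 3.4 kb SMN2 promoter fragment drives β-lactamase expression. CCF2-AM enters the cells and is converted by cytoplasmic esterase into an active β-lactamase substrate. Fold induction relative to vehicle (DMSO) control reflects the amount of β-lactamase made and therefore promoter activation.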

[1] = target: T1, Human, recombinant dihydrofolate reductase (Homo sapiens, UniProt P00374); experiment: Human DHFR assay; type: biochemical
T1 construct: purchased Sigma D6566
T1 sequence (P00374 1-187): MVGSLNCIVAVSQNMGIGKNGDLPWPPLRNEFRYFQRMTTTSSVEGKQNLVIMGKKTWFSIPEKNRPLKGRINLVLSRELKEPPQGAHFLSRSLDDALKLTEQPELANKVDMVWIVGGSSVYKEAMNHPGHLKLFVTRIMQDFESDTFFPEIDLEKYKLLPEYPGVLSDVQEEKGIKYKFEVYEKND
Method: The assay is an adaptation for 96-well plate format from Appleman et al. (Appleman, J R; Howell, E E; Kraut, J; Kuhl, M and Blakley, R L (1988) J. Biol. Chem. 263, 9187-9198). Human, recombinant dihydrofolate reductase (Sigma, D6566) was incubated along with test compounds ([…]) and NADPH (Sigma, N-7505) in 96-well plates. After a 10 min. pre-incubation at room temperature, dihydrofolic acid (Sigma, D7006) was added and the kinetic traces at 340 nm measured on a Spectra Max 190 plate reader at room temperature. Reaction rates were determined from the slopes of the linear portions of the progress curves. The final assay conditions were 0.014 units DHFR, 300 μM NADPH, 30 μM Dihydrofolic acid, 50 mM TRIS, pH 7.6, 100 mM NaCl and 1.25% DMSO. Each compound was measured in duplicates on every assay plate. Each assay plate contained 12 positive controls (DMSO only) and 12 negative controls (no dihydrofolic acid). All data was percent normalized with respect to controls and presented as percent inhibition. Inhibition data was analyzed using Prism and fit to a standard 4-parameter logistic equation to calculate IC50 values.

SMN2 gene = conditions: cultured cells taken from patients with SMA type I; cited from earlier work
[2] = Mus musculus, Table 2, SMN2 promoter driving β-lactamase
[3] = Mus musculus, Table 5, SMN2 promoter driving β-lactamase

| Structure (SMILES) | EC50 (SMN2 promoter; [3]) [µM] | IC50 ([1]; Table 5, read-out: hDHFR IC50) [µM] | also measured |
| --- | --- | --- | --- |
| Nc1nc(N)c2c(OC[C@H]3CC[C@H](Cc4ccccc4Cl)CC3)cccc2n1 [Example-164, 5-[4-(2-Chlorobenzyl)cyclohexylmethoxy]quinazoline-2,4-diamine] | – | – | EC50 (SMN2 promoter; [2]): < 1 µM; IC50 ([1]; Table 2, read-out: hDHFR IC50): > 100 µM |
| Nc1nc(N)c2c(OCC3CCN(CC(F)(F)F)CC3)cccc2n1 [Example-165] | – | – | EC50 (SMN2 promoter; Table 3, SMN2 promoter driving β-lactamase): < 1 µM; IC50 ([1]; Table 3, read-out: hDHFR IC50): > 100 µM |
| COc1ccccc1CC1CCC(COc2cccc3nc(N)nc(N)c23)CC1 (stereo not shown) [Example-168, 5-[4-(2-Methoxybenzyl)-cyclohexylmethoxy]quinazoline-2,4-diamine] | – | – | EC50 (SMN2 promoter; [2]): < 1 µM; IC50 ([1]; Table 2, read-out: hDHFR IC50): < 20 µM |
| Nc1nc(N)c2c(OCCN3CCN(S(=O)(=O)c4ccccc4F)CC3)cccc2n1 [Example-206, 5-{2-[4-(2-Fluoro-benzenesulfonyl)-piperazin-1-yl]-ethoxy}-quinazoline-2,4-diamine] | < 1 | < 20 | – |
| Nc1nc(N)c2c(OCCN3CCN(C(=O)c4ccc(F)cc4F)CC3)cccc2n1 [Example-207, {4-[2-(2,4-Diamino-quinazolin-5-yloxy)-ethyl]-piperazin-1-yl}-(2,4-difluoro-phenyl)-methanone] | < 1 | 20 to 100 | – |
| Nc1nc(N)c2c(OCCN3CCN(C(=O)c4ccc5c(c4)OCO5)CC3)cccc2n1 [Example-208, Benzo[1,3]dioxol-5-yl-{4-[2-(2,4-diamino-quinazolin-5-yloxy)-ethyl]-piperazin-1-yl}-methanone] | < 1 | < 20 | – |
| Nc1nc(N)c2c(OCCN3CCN(S(=O)(=O)c4ccccc4)CC3)cccc2n1 [Example-209, 5-[2-(4-Benzenesulfonyl-piperazin-1-yl)-ethoxy]-quinazoline-2,4-diamine] | < 1 | < 20 | – |
| Nc1nc(N)c2c(OCCN3CCN(S(=O)(=O)c4ccc(F)cc4F)CC3)cccc2n1 [Example-210, 5-{2-[4-(2,4-Difluoro-benzenesulfonyl)-piperazin-1-yl]-ethoxy}-quinazoline-2,4-diamine] | < 1 | < 20 | – |
| Nc1nc(N)c2c(OCCN3CCN(S(=O)(=O)c4ccc(Cl)c(Cl)c4)CC3)cccc2n1 [Example-211, 5-{2-[4-(3,4-Dichloro-benzenesulfonyl)-piperazin-1-yl]-ethoxy}-quinazoline-2,4-diamine] | < 1 | < 20 | – |
| Nc1nc(N)c2c(OCCN3CCN(C(=O)c4ccc(Cl)c(Cl)c4)CC3)cccc2n1 [Example-212, {4-[2-(2,4-Diamino-quinazolin-5-yloxy)-ethyl]-piperazin-1-yl}-(3,4-dichloro-phenyl)-methanone] | < 1 | < 20 | – |
| Nc1nc(N)c2c(OCCN3CCN(C(=O)c4ccccc4)CC3)cccc2n1 [Example-213, {4-[2-(2,4-Diamino-quinazolin-5-yloxy)-ethyl]-piperazin-1-yl}-phenyl-methanone] | < 1 | < 20 | – |
| Nc1nc(N)c2c(OCCN3CCN(C(=O)c4ccc(Cl)cc4)CC3)cccc2n1 [Example-214, (4-Chloro-phenyl)-{4-[2-(2,4-diamino-quinazolin-5-yloxy)-ethyl]-piperazin-1-yl}-methanone] | – | < 20 | EC50 (SMN2 promoter; Table 5, SMN2 promoter driving β-lactamase): < 1 µM |
| Nc1nc(N)c2c(OCCN3CCN(C(=O)c4ccccc4F)CC3)cccc2n1 [Example-215, {4-[2-(2,4-Diamino-quinazolin-5-yloxy)-ethyl]-piperazin-1-yl}-(2-fluoro-phenyl)-methanone] | < 1 | < 20 | – |
| Nc1nc(N)c2c(OCCN3CCN(Cc4ccccc4F)CC3)cccc2n1 [Example-216, 5-{2-[4-(2-Fluoro-benzyl)-piperazin-1-yl]-ethoxy}-quinazoline-2,4-diamine] | < 1 | 20 to 100 | – |
| Nc1nc(N)c2c(OCCN3CCN(Cc4ccc(F)cc4F)CC3)cccc2n1 [Example-217, 5-{2-[4-(2,4-Difluoro-benzyl)-piperazin-1-yl]-ethoxy}-quinazoline-2,4-diamine] | < 1 | 20 to 100 | – |
| CCCC(CCC)C(=O)O [valproic acid] | – | – | increase in production of functional SMN protein (SMN2 gene): 30 to 50% |

Reference: patent US7985755B2, “2,4-diaminoquinazolines for spinal muscular atrophy” (Families of Spinal Muscular Atrophy, priority 2006, dated 2011)
